Measurements reported in patent US20160138088A1, “OPTIMIZED PROBES AND PRIMERS AND METHODS OF USING SAME FOR THE DETECTION, SCREENING, ISOLATION AND SEQUENCING OF VANCOMYCIN RESISTANCE GENES AND VANCOMYCIN RESISTANT ENTEROCOCCI” (priority 2009, published 2016).
Where “and” joins values, the source holds several entries; their conditions need not be identical. Identical values can stand only once.

B1: vanA: vanA oligonucleotide solution: SEQ ID NO: 1, 2, and 5 (nucleic acid)
DNA 1: TTGTGCGGTATTGGGAAACAGT
DNA 2: TGATTTGGTCCACCTCGCCAACAACTAACGC
DNA 3: CTCGACTTCCTGATGAATACGAAAGATTC
modifications: chemistry not given here
B2: vanB: vanB oligonucleotide solution: SEQ ID NOS: 103, 108, and 66 (nucleic acid)
DNA 1: TTACCTACCCTGTCTTTGTGAA
DNA 2: CAGGTTCGTCCTTTGGCGTAACCA
DNA 3: GCTCAATTAAGATTTTTCCATCATATTGTC
modifications: chemistry not given here

Tests used:
VanB phenotype (vanB) = conditions: allele vanB; cited from earlier work
VanG phenotype (vanG) = conditions: allele vanG; cited from earlier work
VanC phenotype (vanC) = conditions: allele vanC; cited from earlier work
VanE phenotype (vanE) = conditions: allele vanE; cited from earlier work
VanD phenotype (vanD) = conditions: allele vanD; cited from earlier work
VanA phenotype (vanA) = conditions: allele vanA; cited from earlier work
[1] = test system: E. faecalis (ATCC No. 700802, strain V583, vanB) gDNA; test: Real-time PCR on E. faecalis (vanB) gDNA; conditions: Input E. faecalis (ATCC No. 700802, strain V583, vanB) gDNA; duplicate reactions; oligos 400 nM each
Method: (§1) The oligonucleotide sequences listed in Table 5 were tested for their ability to amplify their intended target sequences. About 25 μL PCRs were formulated using iQTM Supermix for qPCR (BioRad) and oligos at a final concentration of 400 nM each.
(§2) Genomic DNA isolated from E. faecium (ATCC No. 5159, strain MMC4, vanA) and E. faecalis (ATCC No. 700802, strain V583, vanB) were loaded into real-time PCRs using oligonucleotide solutions specific for vanA and vanB. The specificity of the oligonucleotide solutions was assessed by attempting to amplify E. faecalis (vanB) gDNA with vanA oligos and E. faecium (vanA) gDNA with vanB oligos. Amplification plots are illustrated in FIGS. 1 and 2, which show detection of vanA and vanB. Synthetic constructs encoding the vanA and vanB targets were amplified and compared to duplicate reactions where E. faecium (ATCC No. 5159, strain MMC4, vanA) and E. faecalis (ATCC No. 700802, strain V583, vanB) gDNA was amplified.
(§3) PCRs were run on the ABI 7500 with the following Thermal protocol: • 95° C. 5 minute, initial denaturation • 50 cycles of: • 95° C. 15 sec, denaturation, and • 60° C. 1 min, annealing/extension […]

[2] = test system: E. faecium (ATCC No. 5159, strain MMC4, vanA) gDNA; test: Real-time PCR on E. faecium (vanA) gDNA; conditions: Input E. faecium (ATCC No. 5159, strain MMC4 vanA) gDNA; duplicate reactions; oligos 400 nM each
Method: as §1, §2, §3

[3] = test system: E. faecium vanA synthetic construct; test: Real-time PCR amplification of vanA synthetic construct; conditions: Input synthetic construct (vanA); oligos 400 nM each; ABI 7500, 50 cycles
Method: as §1, §2, §3

[4] = test system: E. faecalis vanB synthetic construct; test: Real-time PCR amplification of vanB synthetic construct; conditions: Input synthetic construct (vanB); oligos 400 nM each; ABI 7500, 50 cycles
Method: as §1, §2, §3

Row | Molecule | MIC (VanB phenotype (vanB)) | MIC (VanG phenotype (vanG)) | MIC (VanC phenotype (vanC)) | MIC (VanE phenotype (vanE)) | MIC (VanD phenotype (vanD)) | MIC (VanA phenotype (vanA)) | Ct [1] | Ct [2] | Ct [3] | Ct [4]
1 | CN[C@H](CC(C)C)C(=O)N[C@H]1C(=O)N[C@@H](CC(N)=O)C(=O)N[C@H]2C(=O)N[C@H]3C(=O)N[C@H](C(=O)N[C@H](C(=O)O)c4cc(O)cc(O)c4-c4cc3ccc4O)[C@H](O)c3ccc(c(Cl)c3)Oc3cc2cc(c3O[C@@H]2O[C@H](CO)[C@@H](O)[C@H](O)[C@H]2O[C@H]2C[C@](C)(N)[C@H](O)[C@H](C)O2)Oc2ccc(cc2Cl)[C@H]1O [vancomycin] | 4-1024 (can be high) μg/mL | 12-16 (low) μg/mL | 2-32 (low) μg/mL | 16 (low) μg/mL | 128 (moderate) μg/mL | – | – | – | – | –
2 | teicoplanin | ≦0.5 (sensitive) μg/mL | 0.5 (sensitive) μg/mL | ≦0.5 (sensitive) μg/mL | 0.5 (sensitive) μg/mL | 4 (moderate) μg/mL | 16-512 (high) μg/mL | – | – | – | –
3 | B1 | – | – | – | – | – | – | UND | 19.67 and 19.80 | 23.36 | –
4 | B2 | – | – | – | – | – | – | 21.85 and 21.53 | UND | – | 24.04
